PubChem BioAssay (NCI)
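Grown in 96-well plates, cells were treated for 48 hours with each compound at five concentrations. Insufficient inhibition: endpoint recorded as highest concentration tested. At the TGI there is no net growth.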

Key:
Experiment in all cases: NCI tumour cell line growth inhibition, 48 h
CCRF-CEM leukemia = test system: CCRF-CEM leukemia
DLD-1 colon = test system: DLD-1 colon
DMS 273 small cell lung = test system: DMS 273 small cell lung
HOP-18 NSCLC = test system: HOP-18 NSCLC
LXFL 529 NSCLC = test system: LXFL 529 NSCLC
SNB-75 CNS = test system: SNB-75 CNS
SNB-78 CNS = test system: SNB-78 CNS
U251 CNS = test system: U251 CNS
XF 498 CNS = test system: XF 498 CNS
BT-549 breast = test system: BT-549 breast
DU-145 prostate = test system: DU-145 prostate
KM20L2 colon = test system: KM20L2 colon
SR leukemia = test system: SR leukemia

Row | Structure (SMILES) | TGI (CCRF-CEM leukemia) [µM] | TGI (DLD-1 colon) [µM] | TGI (DMS 273 small cell lung) [µM] | TGI (HOP-18 NSCLC) [µM] | TGI (LXFL 529 NSCLC) [µM] | TGI (SNB-75 CNS) [µM] | TGI (SNB-78 CNS) [µM] | TGI (U251 CNS) [µM] | TGI (XF 498 CNS) [µM] | TGI (BT-549 breast) [µM] | TGI (DU-145 prostate) [µM] | TGI (KM20L2 colon) [µM] | TGI (SR leukemia) [µM]
1 | CCCN(CCC)c1c([N+](=O)[O-])cc(C(=O)N(CCO)CCO)cc1[N+](=O)[O-] | > 100 | > 100 | > 100 | > 100 | > 100 | > 100 | > 100 | > 100 | > 100 | – | – | – | –
2 | COc1cccc2c1C(=O)OC2c1cccc2ccccc12 (stereo not given) | > 100 | > 100 | > 100 | > 100 | > 100 | 68.4 | > 100 | > 100 | > 100 | > 100 | > 100 | > 100 | > 100
3 | CC(C)(C)OC(=O)c1cccnc1/C=N/O | > 100 | > 100 | > 100 | > 100 | > 100 | > 100 | > 100 | > 100 | > 100 | – | – | > 100 | > 100
4 | COC1OC(C)C2OC(C)(C)OC2C1OC(C)=O (stereo not given) | > 100 | > 100 | > 100 | > 100 | > 100 | – | > 100 | > 100 | > 100 | – | – | > 100 | > 100
5 | O=c1[nH]c(=O)n(C2OC(CO)C(O)C2O)cc1OCC(F)(F)F (stereo not given) | > 100 | > 100 | > 100 | > 100 | > 100 | > 100 | > 100 | > 100 | > 100 | – | – | > 100 | > 100
6 | COc1ccc(C(=O)N/N=C/c2c(C)n(C)n(-c3ccccc3)c2=O)cc1 | > 100 | > 100 | > 100 | > 100 | > 100 | > 100 | > 100 | > 100 | > 100 | – | – | > 100 | > 100
7 | CC(=O)OC1CC[C@@]2(C)C(CC[C@]3(C)C2CC=C2[C@@H]4C(C)[C@H](C)CCC4(C)CCC23C)[C@@]1(C)C(=O)O (stereo not given in full) | 66.3 | 46.4 | 46.8 | 28.8 | 39.4 | 35.8 | 65.6 | 58.2 | 36.1 | 49.8 | 33.2 | 29.4 | 70.6
8 | CCCCCCCCCCCCCC(=O)CSCCNC(=O)CCNC(=O)[C@@H](O)C(C)(C)COP(=O)(O)OP(=O)(O)OCC1OC(n2cnc3c(N)ncnc32)C(O)C1OP(=O)(O)O (stereo not given in full) | 99.2 | 41.1 | 26.2 | 31.7 | 32.5 | 18.2 | 36.5 | 39.2 | 34.3 | – | – | 48 | –
9 | O=c1[nH]c(=O)n(C2CC(O)C(CO)O2)cc1C#Cc1ccc(F)cc1 (stereo not given) | > 100 | > 100 | > 100 | > 100 | > 100 | > 100 | > 100 | > 100 | > 100 | – | – | > 100 | > 100
10 | Cc1ccc(C)c(NC(=O)CC2SC(=Nc3ccccc3Cl)NC2=O)c1 (stereo not given) | > 100 | > 100 | > 100 | > 100 | > 100 | > 100 | > 100 | > 100 | > 100 | – | – | > 100 | 55.4
11 | CCOC(=O)C(CNc1ccc(O)cc1)NC(=O)c1ccccc1 (stereo not given) | > 100 | > 100 | > 100 | > 100 | > 100 | > 100 | > 100 | > 100 | > 100 | – | – | > 100 | > 100
12 | O=C(C/C(CCC(=O)N(Cc1ccccc1)Cc1ccccc1)=N/Nc1ccc([N+](=O)[O-])cc1[N+](=O)[O-])c1ccccc1 | > 100 | > 100 | > 100 | > 100 | > 100 | > 100 | > 100 | > 100 | > 100 | – | – | > 100 | –
13 | C[C@]12CCNC(=O)C=C1CC[C@@H]1C2CC[C@@]2(C)C1CC[C@@H]2OC(=O)COc1ccc(N(CCCl)CCCl)cc1 (stereo not given in full) | 9.45 | 17.8 | 12.2 | 47.7 | 21.8 | 47.2 | > 70 | 11.1 | 4.89 | 60.2 | 22 | 30.3 | 15.7
14 | COc1ccc2[nH]c3c(C)cc([N+](=O)[O-])c(C)c3c2c1 | 56.4 | 72.7 | 45.4 | > 100 | > 100 | 86.1 | – | 97.8 | > 100 | – | – | > 100 | 58.5
15 | CCOC(=O)C1([Se]c2ccccc2)CCCC1=O (stereo not given) | 56.8 | 32.9 | 28.5 | 59.7 | 34.2 | 69.1 | 54.9 | 23.3 | 36.9 | – | – | > 100 | 47.5
16 | COc1cc2c(cc1C1=NC(C)(C)CO1)OCO2 | > 100 | > 100 | – | > 100 | > 100 | > 100 | – | > 100 | > 100 | – | – | > 100 | > 100
17 | CN(/N=C/c1cccc2cccnc12)c1c([N+](=O)[O-])cc([N+](=O)[O-])cc1[N+](=O)[O-] | – | > 100 | > 100 | > 100 | > 100 | > 100 | > 100 | > 100 | > 100 | – | – | > 100 | –
18 | C#CC1(O)CCC2[C@@H]3CCc4cc(Oc5nc(F)nc(-c6c7ccccc7cn6C)n5)ccc4C3CC[C@@]21C (stereo not given in full) | > 67 | > 73.5 | > 100 | > 100 | > 100 | > 100 | > 100 | > 100 | > 100 | – | – | > 100 | > 72.6
19 | COC1C2c3cc4c(cc3CC(C#N)(c3ccccc32)N1C(=O)c1ccccc1)OCO4 (stereo not given) | > 100 | > 100 | > 100 | > 100 | > 100 | > 100 | > 100 | > 100 | > 100 | – | – | > 100 | > 100
